The target of test [1] is T1, BACE2 (Homo sapiens, UniProt Q9Y5Z0).
T1 construct: BACE2 enzyme ectodomain (derived from plasmid “pET17b-T7-hu proBACE2”); T7 (N); made in house
T1 sequence (Q9Y5Z0 63-473 limits assumed): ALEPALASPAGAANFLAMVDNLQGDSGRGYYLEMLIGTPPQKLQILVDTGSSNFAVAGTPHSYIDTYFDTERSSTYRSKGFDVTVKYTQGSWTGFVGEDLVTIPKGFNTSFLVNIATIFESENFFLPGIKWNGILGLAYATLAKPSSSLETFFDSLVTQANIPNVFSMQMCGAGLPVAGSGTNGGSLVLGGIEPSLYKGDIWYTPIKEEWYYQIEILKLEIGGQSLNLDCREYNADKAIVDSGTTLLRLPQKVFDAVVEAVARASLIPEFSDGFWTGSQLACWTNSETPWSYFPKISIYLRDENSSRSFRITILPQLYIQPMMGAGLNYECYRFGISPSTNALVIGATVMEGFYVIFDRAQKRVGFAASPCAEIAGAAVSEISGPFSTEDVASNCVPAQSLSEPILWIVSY
The experiment in a line: Assay A: binding studies using SPR based methods, immobilised BACE2. To be noted: CM5 chip, immobilised BACE2 enzyme ectodomain, acetate buffer pH 4.6, 4% DMSO. Background: In SPR one partner is held on a chip, and binding of the other changes the refractive index at the surface.

For test [2], the target named is T2, BACE1 (Homo sapiens, UniProt P56817). The experiment in a line: Cellular Abeta-lowering assay. Format: cell-based. Also on record: endogenous in cells; host or cells: HEK293 stably transfected with human APP695 wt. The conditions noted are these: HEK293 cells stably transfected with human APP wt (APP695), Aβ40 ELISA of supernatant after 18-20 hrs. (In general: ELISA stands for enzyme-linked immunosorbent assay.)

For test [3], the target named is T2, BACE1. Put plainly: Assay A: binding studies using SPR based methods, immobilised BACE1.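 Also: KD from a 1:1 kinetic fit (koff/kon) of real-time association and dissociation curves, or for fast binders from end-of-association equilibrium responses plotted against log concentration.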 Also on record: 6his-tagged full length BACE 1 expressed in SF9 cells; 6His; made in house; host or cells: SF9 insect cells. The conditions noted are these: CM5 chip, immobilised 6his-tagged full length BACE 1, acetate buffer pH 4.6, 4% DMSO.
For test [4], the target named is T3, BACE2 (Rattus norvegicus, UniProt Q6IE75).
T3 construct: endogenous cellular BACE2 in the Ins1e rat cell line; endogenous in cells; host or cells: INS-TMEM27 (INS1e-derived rat cell line with doxycycline-inducible full-length hTMEM27)
T3 sequence (Q6IE75 63-514): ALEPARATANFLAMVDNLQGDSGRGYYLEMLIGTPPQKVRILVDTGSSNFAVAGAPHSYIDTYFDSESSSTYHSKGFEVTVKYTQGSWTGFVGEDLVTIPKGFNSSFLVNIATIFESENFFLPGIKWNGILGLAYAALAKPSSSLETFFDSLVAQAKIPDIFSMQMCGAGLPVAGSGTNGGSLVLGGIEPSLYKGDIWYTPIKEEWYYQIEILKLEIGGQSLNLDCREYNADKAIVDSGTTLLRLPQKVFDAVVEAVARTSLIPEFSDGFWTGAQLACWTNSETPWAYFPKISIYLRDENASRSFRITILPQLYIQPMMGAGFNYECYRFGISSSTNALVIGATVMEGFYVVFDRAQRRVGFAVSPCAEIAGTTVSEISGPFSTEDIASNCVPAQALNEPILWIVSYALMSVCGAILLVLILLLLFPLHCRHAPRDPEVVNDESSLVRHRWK
Put plainly: Assay for BACE inhibition by measuring cellular TMEM27 cleavage.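 Also: inhibitor added 2 h before doxycycline-induced hTMEM27 expression, supernatant collected after further 46 h, endogenous BACE2 activity read as reduced TMEM27 shedding.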 The test is classed as cell-based. The conditions noted are these: INS-TMEM27 (INS1e-derived) cells, ELISA of shed human TMEM27 in supernatant.

Counter-ions that a name gives are not always drawn.

T2 sequence (P56817 46-501): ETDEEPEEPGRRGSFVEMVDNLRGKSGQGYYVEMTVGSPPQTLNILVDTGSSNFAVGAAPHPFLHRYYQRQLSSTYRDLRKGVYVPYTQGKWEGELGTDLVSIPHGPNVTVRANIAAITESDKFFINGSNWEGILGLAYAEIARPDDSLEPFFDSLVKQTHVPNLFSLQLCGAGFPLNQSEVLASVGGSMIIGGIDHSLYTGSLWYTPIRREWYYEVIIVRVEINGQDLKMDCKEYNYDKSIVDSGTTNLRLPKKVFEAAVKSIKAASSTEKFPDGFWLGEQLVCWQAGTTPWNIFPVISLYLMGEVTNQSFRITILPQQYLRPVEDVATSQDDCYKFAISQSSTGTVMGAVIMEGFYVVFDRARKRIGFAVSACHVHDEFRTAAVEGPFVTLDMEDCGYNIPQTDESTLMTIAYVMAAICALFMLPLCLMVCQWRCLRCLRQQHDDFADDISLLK

For orientation: Kd means the concentration at which binding is half-saturated. Low readings indicate tighter binding, high ones weaker binding. For orientation: IC50 means the concentration that gives 50% inhibition. Lower therefore signals greater potency. Take `C[C@@]1(c2cc(NC(=O)C3CC3(F)F)ccc2F)COCC(N)=N1` (mixture of isomers) [Example 53, (RS)-2,2-difluoro-cyclopropanecarboxylic acid [3-((R)-5-amino-3-methyl-3,6-dihydro-2H-[1,4]oxazin-3-yl)-4-fluoro-phenyl]-amide]: the figures for the Kd in test [1] and in test [3] were 1220 nM and 3950 nM, respectively. Moreover, the IC50 in test [2] came to 620 nM; in test [4], 910 nM.
As for `CC1(C)OCC(N)=N[C@]1(C)c1cc(NC(=O)C2CC2(F)F)ccc1F` (mixture of isomers) [Example 56, (RS)-2,2-difluoro-cyclopropanecarboxylic [3-((R)-5-amino-2,2,3-trimethyl-3,6-dihydro-2H-[1,4]oxazin-3-yl)-4-fluoro-phenyl]-amide], the Kd in test [1] worked out at 1720 nM; in test [3] it was 10800 nM. For the same compound, the IC50 was 1190 nM in test [2] and > 10000 nM in test [4].
The corresponding values for `CC(F)C(=O)Nc1ccc(F)c([C@]2(C)COCC(N)=N2)c1` (mixture of isomers) [Example 87, (RS)—N-[3-((R)-5-amino-3-methyl-3,6-dihydro-2H-[1,4]oxazin-3-yl)-4-fluoro-phenyl]-2-fluoro-propionamide formate] are 477 nM, 474 nM, 120 nM and 52 nM.
Consider `CC1(c2cccc(NC(=O)c3ncc(Cl)cc3Cl)c2)COCC(N)=N1` (racemic) [Example 2, (RS)-3,5-dichloro-pyridine-2-carboxylic acid [3-(5-amino-3-methyl-3,6-dihydro-2H-[1,4]oxazin-3-yl)-phenyl]-amide], for which the Kd in test [1] worked out at 9 nM; in test [3], 50 nM. Besides, the IC50 in test [2] came out at 16 nM; in test [4], 48 nM.
For `CC1(c2cccc(NC(=O)c3ccc(Cl)cc3Cl)c2)COCC(N)=N1` (racemic) [Example 4, (RS)—N-[3-(5-amino-3-methyl-3,6-dihydro-2H-[1,4]oxazin-3-yl)-phenyl]-2,4-dichloro-benzamide], in that order: 381 nM, 1720 nM, 570 nM and 950 nM.
Consider `CC1(c2cccc(NC(=O)c3cccc(Cl)c3)c2)COCC(N)=N1` (racemic) [Example 6, (RS)—N-[3-(5-amino-3-methyl-3,6-dihydro-2H-[1,4]oxazin-3-yl)-phenyl]-3-chloro-benzamide], for which the Kd in test [1] turned out to be 230 nM; in test [3], 6900 nM. Moreover, the IC50 is 1530 nM in test [2] and 660 nM in test [4].
Consider `CC1(c2cccc(NC(=O)c3ccc(Cl)s3)c2)COCC(N)=N1` (racemic) [Example 8, (RS)-5-chloro-thiophene-2-carboxylic acid [3-(5-amino-3-methyl-3,6-dihydro-2H-[1,4]oxazin-3-yl)-phenyl]-amide], for which the Kd in test [1] amounted to 106 nM; in test [3] it was 1490 nM. Besides, the IC50 stood at 327 nM in test [2] and 360 nM in test [4].
Regarding `Cc1cc(C(=O)Nc2cccc(C3(C)COCC(N)=N3)c2)c(C)s1` (racemic) [Example 9, (RS)-2,5-dimethyl-thiophene-3-carboxylic acid [3-(5-amino-3-methyl-3,6-dihydro-2H-[1,4]oxazin-3-yl)-phenyl]-amide], the Kd in test [1] stood at 63 nM; in test [3], 717 nM. Further, the IC50 in test [2] amounted to 58 nM; in test [4], 43 nM.
Consider `Cc1nc(C(=O)Nc2cccc(C3(C)COCC(N)=N3)c2)co1` (racemic) [Example 12, (RS)-2-methyl-oxazole-4-carboxylic acid [3-(5-amino-3-methyl-3,6-dihydro-2H-[1,4]oxazin-3-yl)-phenyl]-amide], for which the IC50 in test [2] came out at 20 nM; in test [4], 17 nM.
Consider `Cc1cc(C(=O)Nc2cccc(C3(C)COCC(N)=N3)c2)c(C)o1` (racemic) [Example 13, (RS)-2,5-dimethylfuran-3-carboxylic acid [3-(5-amino-3-methyl-3,6-dihydro-2H-[1,4]oxazin-3-yl)-phenyl]-amide], for which the Kd in test [1] was determined as 33 nM; in test [3], 445 nM. Moreover, the IC50 in test [2] came out at 24 nM; in test [4], 51 nM.
For the compound `CC1(c2cc(NC(=O)c3ccc(Cl)cc3)ccc2F)COCC(N)=N1` (racemic) [Example 19, (RS)—N-[3-(5-amino-3-methyl-3,6-dihydro-2H-[1,4]oxazin-3-yl)-4-fluoro-phenyl]-4-chloro-benzamide], the equilibrium dissociation constant (Kd) in test [1] is 98 nM; in test [3], 394 nM. The IC50 in test [2] amounted to 130 nM; in test [4], 837 nM.
As for `NC1=NC(c2cc(NC(=O)c3ccc(Cl)cn3)ccc2F)(C2CC2)COC1` (racemic) [Example 22, (RS)-5-Chloro-pyridine-2-carboxylic acid [3-(5-amino-3-cyclopropyl-3,6-dihydro-2H-[1,4]oxazin-3-yl)-4-fluoro-phenyl]-amide], the Kd amounted to 19 nM in test [1] and 140 nM in test [3]. The IC50 in test [2] and in test [4] was 11 nM in each case.
`CC1(c2cc(NC(=O)C(F)(F)C(F)(F)F)ccc2F)COCC(N)=N1` (racemic) [Example 26, (RS)—N-[3-(5-Amino-3-methyl-3,6-dihydro-2H-[1,4]oxazin-3-yl)-4-fluoro-phenyl]-2,2,3,3,3-pentafluoro-propionamide]: the IC50 in test [2] stood at 375 nM; in test [4], 2230 nM.
Regarding `CC1(c2cc(NC(=S)c3ccc(Cl)cc3)ccc2F)COCC(N)=N1` (racemic) [Example 27, (RS)—N-[3-(5-Amino-3-methyl-3,6-dihydro-2H-[1,4]oxazin-3-yl)-4-fluoro-phenyl]-4-chloro-thiobenzamide], the IC50 in test [2] was 1130 nM; in test [4], 320 nM.
Take `C[C@@]1(c2cc(NC(=O)c3ccc(Cl)cn3)ccc2F)CO[C@@H](Cc2ccccc2)C(N)=N1` (racemic) [Example 29, 5-Chloro-pyridine-2-carboxylic acid [3-((3R,6S)— and (3S,6R)-5-amino-6-benzyl-3-methyl-3,6-dihydro-2H-[1,4]oxazin-3-yl)-4-fluoro-phenyl]-amide]: the Kd came out at 6 nM in test [1] and 58 nM in test [3]. For the same compound, the IC50 in test [2] came to 50 nM; in test [4], 140 nM.
In the case of `CC1(c2cc(NC(=O)c3cc(-c4ccco4)on3)ccc2F)COCC(N)=N1` (racemic) [Example 75, 5-Furan-2-yl-isoxazole-3-carboxylic acid [3-((RS)-5-amino-3-methyl-3,6-dihydro-2H-[1,4]oxazin-3-yl)-4-fluoro-phenyl]-amide], the Kd in test [1] was found to be 2150 nM; in test [3], 261 nM. Further, the IC50 is 110 nM in test [2] and > 10000 nM in test [4].
Turning to `C[C@@]1(c2cc(NC(=O)C(F)C(F)(F)F)ccc2F)COCC(N)=N1` (mixture of isomers) [Example 89, formate], the IC50 in test [2] amounted to 500 nM; in test [4], 820 nM. For the same compound, the affinity in test [3], expressed as Kd, was 805 nM.
As to `Cc1nc(C(F)(F)F)c(C(=O)Nc2ccc(F)c([C@]3(C)COCC(N)=N3)c2)s1` [Example 47, 2-methyl-4-trifluoromethyl-thiazole-5-carboxylic acid [3-((R)-5-amino-3-methyl-3,6-dihydro-2H-[1,4]oxazin-3-yl)-4-fluoro-phenyl]-amide], the figures for the IC50 in test [2] and in test [4] were 800 nM and 730 nM, respectively.
With `CC1(C)OCC(N)=N[C@]1(C)c1cc(NC(=O)C2(C(F)(F)F)CC2)ccc1F` [Example 55, 1-trifluoromethyl-cyclopropanecarboxylic acid [3-((R)-5-amino-2,2,3-trimethyl-3,6-dihydro-2H-[1,4]oxazin-3-yl)-4-fluoro-phenyl]-amide], the values for the Kd in test [1] and in test [3] were 2300 nM and 6400 nM, respectively. In test [4], the IC50 came to 46 nM.
